According to patent publication US20110237493A1, “DIPEPTIDE LINKED MEDICINAL AGENTS” (priority 2008, published 2011):
Like-named read-outs stand apart in the source and are kept apart here. Where a SMILES comes first, the peptide text is derived from it. [ ]: non-standard residue; d: D form. NHexGly = CCCCCCNCC(=O)O; Sar = CNCC(=O)O

How the values were obtained:
[1] = Rate of model dipeptide cleavage in PBS (HPLC / LC-MS); settings: for half-life at 1 mg/ml: buffer; for Relative peak area (%) HPLC peak a (molecular weight 702) / Relative peak area (%) HPLC peak b (molecular weight 902): PBS, 37° C.
Method: The solution was incubated at 37° C. […] The dipeptide cleavage was quenched by lowering the pH with an equal volume of 0.1% TFA. The rate of cleavage was qualitatively monitored by LC-MS and quantitatively studied by HPLC. The retention time and relative peak area for the prodrug and the parent model peptide were quantified using Peak Simple Chromatography software.
The flow rate was 1 ml/min.
The concentrations of the prodrugs and the model parent peptide were determined by their respective peak areas, ‘a’ and ‘b’ for each of the different collection times (Table 1). […] The slope of this plot provides the rate constant ‘k’.

[2] = plasma

Structure (SMILES): C[C@@H](O)[C@H](NC(=O)CNC(=O)[C@H](CCCNC(=N)N)NC(=O)[C@H](CO)NC(=O)[C@H](Cc1c[nH]cn1)NC(=O)CN(C)C(=O)C(C)(C)N)C(=O)N[C@@H](Cc1ccccc1)C(N)=O [Compound 24]
- half-life at 1 mg/ml [1]: 0.817 h

Structure (SMILES): CCCCCCN(CC(=O)N[C@@H](Cc1c[nH]cn1)C(=O)N[C@@H](CO)C(=O)N[C@@H](CCCNC(=N)N)C(=O)NCC(=O)N[C@H](C(=O)N[C@@H](Cc1ccccc1)C(N)=O)[C@@H](C)O)C(=O)C(C)(C)N [Compound 25]
- half-life at 1 mg/ml [1]: 0.167 h

Structure (SMILES): C[C@@H](O)[C@H](NC(=O)CNC(=O)[C@H](CCCNC(=N)N)NC(=O)[C@H](CO)NC(=O)[C@H](Cc1c[nH]cn1)NC(=O)CN(C)C(=O)CN)C(=O)N[C@@H](Cc1ccccc1)C(N)=O [Compound 27] (H-G[Sar]HSRGTF-NH2)
- half-life at 1 mg/ml [1]: 104 h

Structure (SMILES): C[C@@H](O)[C@H](NC(=O)CNC(=O)[C@H](CCCNC(=N)N)NC(=O)[C@H](CO)NC(=O)[C@H](Cc1c[nH]cn1)NC(=O)CN(C)C(=O)CO)C(=O)N[C@@H](Cc1ccccc1)C(N)=O [Compound 28]
- half-life at 1 mg/ml [1]: 149 h

Structure (SMILES): CCCCCCN(CC(=O)N[C@@H](Cc1c[nH]cn1)C(=O)N[C@@H](CO)C(=O)N[C@@H](CCCNC(=N)N)C(=O)NCC(=O)N[C@H](C(=O)N[C@@H](Cc1ccccc1)C(N)=O)[C@@H](C)O)C(=O)CN [Compound 29] (H-G[NHexGly]HSRGTF-NH2)
- half-life at 1 mg/ml [1]: 70 h

Structure (SMILES): C[C@@H](O)[C@H](NC(=O)CNC(=O)[C@H](CCCNC(=N)N)NC(=O)[C@H](CO)NC(=O)[C@H](Cc1c[nH]cn1)NC(=O)CN(C)C(=O)[C@H](N)CCCCN)C(=O)N[C@@H](Cc1ccccc1)C(N)=O [Compound 30]
- half-life at 1 mg/ml [1]: 27 h

Structure (SMILES): C[C@@H](O)[C@H](NC(=O)CNC(=O)[C@H](CCCNC(=N)N)NC(=O)[C@H](CO)NC(=O)[C@H](Cc1c[nH]cn1)NC(=O)CN(C)C(=O)[C@@H](N)CCCCN)C(=O)N[C@@H](Cc1ccccc1)C(N)=O [Compound 33]
- t1/2 of cleavage of dipeptide A-B ([1]; in PBS, A-B linked to position 1 (X) of model hexapeptide XSRGTF-NH2): 14 h

Structure (SMILES): C[C@@H](O)[C@H](NC(=O)CNC(=O)[C@H](CCCNC(=N)N)NC(=O)[C@H](CO)NC(=O)[C@H](Cc1c[nH]cn1)NC(=O)CN(C)C(=O)[C@@H](N)Cc1ccccc1)C(=O)N[C@@H](Cc1ccccc1)C(N)=O [Compound 34] (H-F[Sar]HSRGTF-NH2)
- half-life at 1 mg/ml [1]: 29 h

Structure (SMILES): C[C@@H](O)[C@H](NC(=O)CNC(=O)[C@H](CCCNC(=N)N)NC(=O)[C@H](CO)NC(=O)[C@H](Cc1c[nH]cn1)NC(=O)CN(C)C(=O)[C@@H](N)CO)C(=O)N[C@@H](Cc1ccccc1)C(N)=O [Compound 35] (H-S[Sar]HSRGTF-NH2)
- half-life at 1 mg/ml [1]: 17 h

Structure (SMILES): C[C@@H](O)[C@H](NC(=O)CNC(=O)[C@H](CCCNC(=N)N)NC(=O)[C@H](CO)NC(=O)[C@H](Cc1c[nH]cn1)NC(=O)CN(C)C(=O)[C@@H]1CCCN1)C(=O)N[C@@H](Cc1ccccc1)C(N)=O [Compound 36] (H-P[Sar]HSRGTF-NH2)
- half-life at 1 mg/ml [1]: 181 h

Structure (SMILES): C[C@@H](O)[C@H](NC(=O)CNC(=O)[C@H](CCCNC(=N)N)NC(=O)[C@H](CO)NC(=O)[C@H](Cc1c[nH]cn1)NC(=O)CN(C)C(=O)[C@@H](N)CCCCN)C(=O)N[C@@H](Cc1ccccc1)C(N)=O [peptide A, Lys-Sar-HSRGTF-NH2]
- Relative peak area (%) HPLC peak a (molecular weight 702) ([1]; 5 h): 26.5%
- Relative peak area (%) HPLC peak b (molecular weight 902) ([1]; 5 h): 73.5%
- Relative peak area (%) HPLC peak a (molecular weight 702) ([1]; 8 h): 28.9%
- Relative peak area (%) HPLC peak b (molecular weight 902) ([1]; 8 h): 71.1%
- Relative peak area (%) HPLC peak a (molecular weight 702) ([1]; 24 h): 28.8%
- Relative peak area (%) HPLC peak b (molecular weight 902) ([1]; 24 h): 71.2%
- Relative peak area (%) HPLC peak a (molecular weight 702) ([1]; 31 h): 77.7%
- Relative peak area (%) HPLC peak b (molecular weight 902) ([1]; 31 h): 22.3%
- Relative peak area (%) HPLC peak a (molecular weight 702) ([1]; 47 h): 90.0%
- Relative peak area (%) HPLC peak b (molecular weight 902) ([1]; 47 h): 10.0%
- half-life at 1 mg/ml [1]: 14 h

Structure (SMILES): C[C@H](O)[C@@H](NC(=O)CNC(=O)[C@@H](CCCNC(=N)N)NC(=O)[C@H](NC(=O)[C@@H](Cc1c[nH]cn1)NC(=O)CN(C)C(=O)[C@@H](N)CCCCN)[C@H](C)O)C(=O)N[C@H](Cc1ccccc1)C(N)=O [peptide B, Lys-Sar-dHdTdRGdTdF-NH2] (H-K[Sar][dH][dT][dR]G[dT][dF]-NH2)
- Relative peak area (%) HPLC peak a (molecular weight 702) ([2]; 5 h): 17.0%
- Relative peak area (%) HPLC peak b (molecular weight 902) ([2]; 5 h): 83.0%
- Relative peak area (%) HPLC peak a (molecular weight 702) ([2]; 11 h): 29.2%
- Relative peak area (%) HPLC peak b (molecular weight 902) ([2]; 11 h): 70.8%
- Relative peak area (%) HPLC peak a (molecular weight 702) ([2]; 24 h): 60.2%
- Relative peak area (%) HPLC peak b (molecular weight 902) ([2]; 24 h): 39.8%
- Relative peak area (%) HPLC peak a (molecular weight 702) ([2]; 32 h): 54.0%
- Relative peak area (%) HPLC peak b (molecular weight 902) ([2]; 32 h): 46.0%
- Relative peak area (%) HPLC peak a (molecular weight 702) ([2]; 48 h): 27.6%
- Relative peak area (%) HPLC peak b (molecular weight 902) ([2]; 48 h): 72.4%
